Source: US20250304623A1, “PEPTIDES FOR INTRACELLULAR DELIVERY” (UNIVERSIDADE DE SANTIAGO DE COMPOSTELA, priority 2022, published 2025)

Key:
Hela cells = experiment: EGFP pDNA transfection, flow cytometry, HeLa; format: cell-based; conditions: myristoleyl aldehyde
Description: (§1) For cytometry-based assays, the delivery of pDNA encoding for the expression of eGFP gene (GFP) in HeLa and A549 cells was performed. Amphiphilic molecule stock solutions in DMSO were diluted with DMEM and freshly mixed with pDNA stock solutions in DMEM prior to transfection experiments, to afford several complexes at different amphiphile concentration (2.5-10 μM) while maintaining a constant final pDNA concentration of 2 ng/μL. The mixture was shaken for 30 min at room temperature before the addition to the cells. The cell medium was aspirated, and cells were washed twice with PBS. Finally, 50 μL of the complex's solution were added to the cells and incubated for 4 h. After the incubation, the medium was replaced by 100 μL of fresh DMEM supplemented with 10% FBS. 72 hours after transfection the DMEM was removed, and cells were cultured for 5 min with 100 μL of trypsin. Then, 100 μL of PBS (supplemented with 2% FBS and 1% EDTA 0.5M) were added. Finally, the GFP fluorescent measurement was performed in a flow cytometer and the percentage of GFP positive (i.e., transfected cells) were quantified. Amphiphile transfection efficiency was compared to control, non-treated cells and all experiments were done in triplicate.
7.3(Leu-His) peptide with D-amino acids was synthesized. This peptide would be more resistant to the degradation by proteases. The inventors studied the delivery of EGFP pDNA using amphiphiles comprising either enantiomer (either 7.3(Leu-His) peptide with D-amino acids or with L-amino acids) and myristoleyl aldehyde to compare their transfecting activity in HeLa cells. Number of EGFP expressing cells was measured by flow cytometry.
Experiments in cultured cells at different confluence levels were performed to check the effect of this parameter on the activity of amphiphile 7.3(Leu-His) M. As described above, transfection experiments are usually performed on cells seeded the day before at a cell concentration of 60,000 cell/mL (100 μL/well). In the current example, transfection experiments with EGFP pDNA are performed in HeLa cells two and four times more concentrated (120,000 and 240,000 cells/mL, respectively). […] However, for this experiment more volume of complex amphiphile/pDNA was needed as the cell concentration was increased (50, 100 and 200 μL of complexes were used for 60,000, 120,000 and 240,000 cells/mL, respectively).
Several structural modifications were performed on the peptide 7.3(Leu-His). The delivery of EGFP pDNA in HeLa cells using amphiphiles comprising these peptides and myristoleyl aldehyde was tested. The modifications consisted of the modification in the order of the amino acids, the replacement of 1 to 3 K* residues for O* residues and the addition of 1 or 2 R residues on the N-terminus. […]

A549 cells = experiment: EGFP pDNA transfection, flow cytometry, A549; format: cell-based; conditions: myristoleyl aldehyde, 5 μM
Description: FIG. 6 EGFP pDNA transfection efficacy with amphiphiles (myristoleyl aldehyde hydrophobic tails were used in all cases) comprising peptide 7.3(L-H) and other short peptides structurally-derived from 7.3(L-H), in A549, HeLa and HepG2 cell lines. 5 μM of amphiphile and 2 ng/μL pDNA per well were used in the transfection experiments. “LF”=Lipofectamine® 2000 commercial reagent.
as §1, with “72 hours after transfection the DMEM was removed, and cells were cultured for 5 min with 100 μL of trypsin. Then, 100 μL of PBS (supplemented with 2% FBS and 1% EDTA 0.5M) were added.” left out, “Amphiphile transfection efficiency was compared to control, non-treated cells and all experiments were done in triplicate.” left out

[1] = 5 μM, cell lines of FIG. 6 other than A549

Substance: Ac-RHK*K*K*HR-NH2 (Ac-RHKKKHR-NH2; not fully specified (residues 3, 4, 5); printed as Ac-RHK*K*K*HR-NH2; also: linker on K* not given here) [V1-7.3(Leu-His)]
- EGFP pDNA transfection efficiency compared with amphiphile 7.3(Leu-His) M (Hela cells; [1]): generally show the same transfection efficiency
- EGFP pDNA transfection efficiency compared with other amphiphiles (A549 cells): about half

Substance: Ac-RK*HHK*K*R-NH2 (Ac-RKHHKKR-NH2; not fully specified (residues 2, 5, 6); printed as Ac-RK*HHK*K*R-NH2; also: linker on K* not given here) [V2-7.3(Leu-His)]
- EGFP pDNA transfection efficiency as % of V1-7.3(Leu-His) M or 7.3(Leu-His) M (Hela cells; [1]): about 50%
- EGFP pDNA transfection efficiency compared with other amphiphiles (A549 cells): enhanced efficiency matching V1-7.3(Leu-His) M transfection efficiency

Substance: Ac-RK*HRK*K*H-NH2 [7.3(Leu-His) peptide with D-amino acids]
- EGFP pDNA transfecting activity, D- versus L-amino acid peptide (Hela cells; HeLa, flow cytometry): both peptides perform equally efficiently
